“Also recorded” adds a separate entry of the source. Read-outs that look alike come from different tables or passages of the source.
B1: gp350: highly purified EBV structural glycoprotein gp350, subunit preparation (recombinant and affinity purified) (protein, UniProt P03200 1-907, looked up)
Envelope glycoprotein GP350: MEAALLVCQYTIQSLIHLTGEDPGFFNVEIPEFPFYPTCNVCTADVNVTINFDVGGKKHQLDLDFGQLTPHTKAVYQPRGAFGGSENATNLFLLELLGAGELALTMRSKKLPINVTTGEEQQVSLESVDVYFQDVFGTMWCHHAEMQNPVYLIPETVPYIKWDNCNSTNITAVVRAQGLDVTLPLSLPTSAQDSNFSVKTEMLGNEIDIECIMEDGEISQVLPGDNKFNITCSGYESHVPSGGILTSTSPVATPIPGTGYAYSLRLTPRPVSRFLGNNSILYVFYSGNGPKASGGDYCIQSNIVFSDEIPASQDMPTNTTDITYVGDNATYSVPMVTSEDANSPNVTVTAFWAWPNNTETDFKCKWTLTSGTPSGCENISGAFASNRTFDITVSGLGTAPKTLIITRTATNATTTTHKVIFSKAPESTTTSPTLNTTGFADPNTTTGLPSSTHVPTNLTAPASTGPTVSTADVTSPTPAGTTSGASPVTPSPSPWDNGTESKAPDMTSSTSPVTTPTPNATSPTPAVTTPTPNATSPTPAVTTPTPNATSPTLGKTSPTSAVTTPTPNATSPTLGKTSPTSAVTTPTPNATSPTLGKTSPTSAVTTPTPNATGPTVGETSPQANATNHTLGGTSPTPVVTSQPKNATSAVTTGQHNITSSSTSSMSLRPSSNPETLSPSTSDNSTSHMPLLTSAHPTGGENITQVTPASISTHHVSTSSPAPRPGTTSQASGPGNSSTSTKPGEVNVTKGTPPQNATSPQAPSGQKTAVPTVTSTGGKANSTTGGKHTTGHGARTSTEPTTDYGGDSTTPRPRYNATTYLPPSTSSKLRPRWTFTSPPVTTAQATVPVPPTSQPRFSNLSMLVLQWASLAVLTLLLLLVMADCAFRRNLSTSHTYTTPPYDDAETYV

Experiments:
[1] = test system: peptide-sensitized HLA-matched PHA blasts; assay type: cell-based, human
[2] = test system: peptide-sensitized autologous PHA blasts
[3] = test system: gp350- and gp85-specific CTL response; conditions: mouse, in vivo, sc
HLA A2 on T2 cells = molecular target: T1, HLA A2 on T2 cells (Homo sapiens, UniProt P04439, D140Y/D185E/D98H/E176V/E277Q/G131W/G231S/I119V/I121R/I166T/I218V/L300P/L318F/N151K/N90K/P208A/P217A/Q86G/Q94H/R138H/R169H/T345S); test: MHC stabilisation assay on T2 cells (HLA A2 expression by FACS); assay type: cell-based; conditions: peptide 200 μg/ml, 26° C. 14-16h then 37° C. 2-3h
T1 construct: using HLA A2-positive T2 cells; endogenous in cells; host or cells: T2 (174xCEM.T2), TAP-negative B x T hybrid cell line
Protocol: FIG. 1:MHC stablization analysis on T2 cells using potential HLA A2 binding peptides within LMP1. T2 cells were initially incubated with 200 μl of each of the peptides (200 μg/ml) for 14-16h at 26° C. followed by incubation at 37° C. for 2-3h. HLA A2 expression on these cells was analysed by FACS using the BB7.2 antibody. The dotted line indicates the background mean fluorescence intensity for HIA A2 on T2 cells without any peptide. The LMP1 peptides showing significant stablization of HLA A2 molecules on T2 cells are indicated by arrows.
FIG. 6:Effect of variant LMP1 peptides on the HLA A2 binding (panel A) and CTL recognition (panel B). For HLA A2 binding analysis on T2 cells were initially incubated with 200 μl of each of the peptides (200 μg/ml) for 14-16h at 26° C. followed by incubation at 37° C. for 2-3h. HLA A2 expression on these cells was analysed by FACS using BB7.2 antibody (panel A). The dotted line indicates the background mean fluorescence intensity for HLA A2 on T2 cells without any peptide. […] Results are expressed as percent specific lysis. […]
FIG. 8:MHC stabilization analysis on T2 cells using potential HLA A2 binding peptides within gp85 (panel A) and gp350 (panel B). […] HLA A2 expression on these cells was analysed by FACS using the BB7.2 antibody. The dotted line indicates the background mean fluorescence intensity for HLA A2 on T2 cells without any peptide. […]

CTL clone SB7 = test: LMP1-specific CTL clone SB7, peptide recognition / 51Cr-release assay; assay type: cell-based, human; conditions: donor; for recognition of peptide by CTL clone SB7: effector:target 4:1
[4] = test system: peptide-sensitized autologous PHA blasts; test: Polyclonal CTLs stimulated with LMP1 peptides, 51Cr-release assay; assay type: cell-based, human; conditions: HLA A2-positive donor; effector:target 20:1; targets 1 μg/ml peptide
EBV-positive lymphomas = conditions: cited from earlier work

| Molecule | ex vivo CTL recognition of peptide-sensitized targets [1] | reactivity of polyclonal CTL effectors against peptide-sensitized PHA blasts [2] | CTL response in splenocytes [3] | lysis of targets by CTLs activated from splenocytes of immunized mice [3] | further results |
| --- | --- | --- | --- | --- | --- |
| LMIIPLINV | recognised | recognized | – | – | – |
| SLVIVTTFV | strong reactivity | strong reactivity | induced strong CTL response | variable in vitro CTL lysis | – |
| TLFIGSHVV | – | recognized | induced strong CTL response | consistently showed strong lysis | ex vivo CTL response during acute infection [1]: not detectable |
| VLQWASLAV | strong reactivity; also recorded: recognised | strong reactivity | induced strong CTL response | variable in vitro CTL lysis | – |
| YFLEILWGL | – | – | – | – | expression of HLA A2 on T2 cells (HLA A2 on T2 cells): significantly increased; recognition of peptide by CTL clone SB7 (CTL clone SB7): no CTL activity |
| YLLEILWRL (Epstein Barr Virus) | – | – | – | – | expression of HLA A2 on T2 cells (HLA A2 on T2 cells): significantly increased; recognition of peptide by CTL clone SB7 (CTL clone SB7): efficiently recognized |
| YLQQNWWTL (Epstein Barr Virus) [LMP1 residues 159-167] | – | – | – | – | activation of polyclonal CTLs (specific lysis) [4]: significant activation of polyclonal CTLs; also recorded: weaker response; isolation of peptide-specific CTL clones (CTL clone SB7): No CTL clones specific; ex vivo CTL recognition of peptide-sensitized targets ([1]; all three IM patients, peptide 1 μg/ml): clear recognition |
| B1 | – | – | – | – | tumor formation / tumor outgrowth (EBV-positive lymphomas; cotton-top tamarins): inhibited tumor formation; serum neutralizing antibodies (EBV-positive lymphomas; subcutaneously with adjuvants (muramyl dipeptide or ISCOMs)): induced high levels of serum neutralizing antibodies |

Reference: patent US6723695B1, “CTL epitopes from EBV” (priority 1997, dated 2004)
